Here are results for one compound from patent publication US11253477B2, “Compositions based on propolis nanocapsules which can be used as carriers for substances of interest, methods for producing same and use thereof” (EMPRESA BRASILEIRA DE PESQUISA AGROPECUÁRIA—EMBRAPA, priority 2010, dated 2022).

The test concerns Staphyloccoccus aureus, strain ATCC23273. The test can be described thus: Colony forming units in agar BHI of samples from the bactericidal/bacteriostatic test. In kind it is cell-based, Staphylococcus aureus. The arrangement: key to Colony forming unites (CFU) in agar BHI: i = uncountable. How it is done:
The bactericidal/bacteriostatic effect of the propolis nanoparticles, of nanoencapsulated arithromycin in propolis extract and of pure arithromycin was determined in vitro against samples of Staphylocossus aureus (strain ATCC23273) cultivated in Mueller Hinton culture broth, according to Table 3. Since azithromycyn is a bacteriostatic antibiotic, the samples of the different dilutions were used to determine the core of colony forming units (UFC) in agar BHI (brain-heart-infusion), and thereby determine the bactericidal/bacteriostatic effect shown in Table 4.

Turning to `CC[C@H]1OC(=O)[C@H](C)[C@@H](O[C@H]2C[C@@](C)(OC)[C@@H](O)[C@H](C)O2)[C@H](C)[C@@H](O[C@@H]2O[C@H](C)C[C@H](N(C)C)[C@H]2O)[C@](C)(O)C[C@@H](C)CN(C)[C@H](C)[C@@H](O)[C@]1(C)O` [A, azithromycin], for the setting “from broth test and CFU count”, the “concentration with bactericidal effect on Staphylococcus aureus” value is at least 128 µg/mL. For the same compound, the “Colony forming unites (CFU) in agar BHI” value (origin tube 4) is “i”; the “Colony forming unites (CFU) in agar BHI” value (origin tube 8) turned out to be 30 UFC; the “Colony forming unites (CFU) in agar BHI” value (origin tube 16) came to 3 UFC; the “Colony forming unites (CFU) in agar BHI” value (origin tube 32) is 1 UFC; the “Colony forming unites (CFU) in agar BHI” value (origin tube 64) came out at 1 UFC; the “Colony forming unites (CFU) in agar BHI” value (origin tube 128) was determined as 0 UFC. The “Colony forming unites (CFU) in agar BHI” value reads like this: (origin tube 512) 0 UFC; (origin tube 526) 0 UFC.
